This is an account of results in PMC8931161 (2022).

The test system of experiment [1] is PQS-675-Mut (RNA, single strand) GAGCGAGCGGCCUGCAGAGACAUGAG
Description: fluorescence light-up. The following applies: 150 mM K+, 10 mM Tris-HCl pH 7.5, 2 µM RNA.

Experiment [2] relates to PQS-675-WT (RNA, G4) GGGCGGGCGGCCUGCAGGGACAUGGG
Description: fluorescence light-up. The following applies: 150 mM K+, 10 mM Tris-HCl pH 7.5, 2 µM RNA.

Experiment [3] has as its system PQS-675-WT-biotin (RNA, G4) GGGCGGGCGGCCUGCAGGGACAUGGG
Description: bio-layer interferometry. The following applies: K+ (folded in 150 mM KCl); PBST (PBS, 0.01% Tween-20), 25 °C; PDS 0.5-8 µM; 1:1 model; RNA immobilised. For orientation: In BLI a coated tip is dipped into the sample, and binding shifts an interference pattern.

Experiment [4] relates to PQS-675-Mut-FRET (RNA, single strand) GAGCGAGCGGCCUGCAGAGACAUGAG
Description: FRET melting. Particulars: 150 mM K+; 10 mM Tris-HCl pH 7.5; 1 µM PDS, 200 nM RNA; derived from two Tm (38.33, 38.03).

For experiment [5], the system named is PQS-675-Mut-biotin (RNA, single strand) GAGCGAGCGGCCUGCAGAGACAUGAG
Description: bio-layer interferometry. Particulars: K+ (folded in 150 mM KCl); PBST (PBS, 0.01% Tween-20), 25 °C; PDS 0.5-8 µM; 1:1 model; RNA immobilised.

The subject of experiment [6] is PQS-675-WT-FRET (RNA, G4) GGGCGGGCGGCCUGCAGGGACAUGGG
Description: FRET melting. The following applies: 10 mM Tris-HCl pH 7.5, 1 µM PDS, 200 nM RNA.

In experiment [7] the test system is PQS-675-WT (RNA, G4) GGGCGGGCGGCCUGCAGGGACAUGGG
Description: CD melting at 264 nm. The following applies: 10 mM Tris-HCl pH 7.5, 5 µM RNA, PDS concentration not stated.

`Cc1ccc2c(c1)sc(-c1ccc(N(C)C)cc1)[n+]2C`: the binding result in experiment [1] (2 µM ThT, decreased but still strong, non-specific) is given as “yes”; in experiment [2] (2 µM ThT) it was “yes”.
With `CCc1c(C)c2cc3nc(cc4nc(cc5c(CC)c(C)c(cc1[nH]2)n5C)C(C)=C4CCC(=O)O)C(CCC(=O)O)=C3C`, the binding result in experiment [1] (2 µM NMM, intensity decreased) was “weak”; in experiment [2] (2 µM NMM), “yes”.
By KD is commonly meant the constant that tells how readily two partners part at equilibrium. A lower KD goes with a tighter complex. A word on the ΔTm: it is the change in melting temperature against a reference sample. In the case of `NCCOc1cc(C(=O)Nc2cc(OCCN)c3ccccc3n2)nc(C(=O)Nc2cc(OCCN)c3ccccc3n2)c1`, the dissociation constant (KD) in experiment [3] was 0.6049 ± 0.00284 µM; in experiment [5] it was 3.327 ± 7e-05 µM. Further, the shift in melting temperature (ΔTm) in experiment [4] is -0.30 °C; in experiment [6] (150 mM K+, derived from two Tm (74.00, 77.48)) it was 3.48 °C; in experiment [6] (150 mM Li+, derived from two Tm (63.27, 65.71)) it was 2.44 °C; in experiment [7] (150 mM K+, derived from two Tm (70.00, 74.00)), 4.00 °C; in experiment [7] (150 mM Li+, derived from two Tm (64.00, 64.00)), 0.00 °C.
